Patent publication US20080319001A1, “Cancer Treatment Using Specific 3,6,9-Substituted Acridines” (priority 2005, published 2008)
Read-outs that look alike come from different tables or passages of the source.

Columns and labels:
[1] = pKa measurement (Sirius GlpKa, potentiometric and UV titration); assay type: physicochemical
Procedure: Pka determination was performed on a Sirius GlpKa instrument equipped with a D-PAS (Dip-Probe Absorption Spectroscopy) attachment. Measurements were made by potentiometric and UV titration in MeOH:H2O mixtures at 25° C. The titration media was ionic strength adjusted with 0.15 M KCl. The values found in the MeOH:H2O mixtures were extrapolated to 0% co-solvent via a Yasuda-Shedlovsky extrapolation. Prediction of pKa values was made using ACD v8.07 software.
BSG01-4.14 from aqueous UV measurement (Potentiometry gave 4.15 although incomplete curves were collected). Other values from potentiometric in Aqueous/MeOH mixtures followed by Yasuda-Shedlovsky extrapolation to 0% MeOH. All pKas basic from slope of extrapolation. P BSG17—Values from potentiometric titrations in Aqueous/MeOH mixtures followed by Yasuda-Shedlovsky extrapolation to 0% MeOH. All pKas basic from slop of extrapolation. PKas 2 and 3 for titration in 30% MeOH removed from YS extrapolation due to precipitation.

[2] = Pharmacokinetic evaluation in mice (plasma kinetics); assay type: in vivo, mouse; settings: for AUC(0-t): female, MF1, mouse; for Cmax / clearance / half-life: mouse, female MF1 mice; for half-life: single dose (1 mg/kg iv or 20 mg/kg oral; route not stated with values)
Procedure: The test article is identified as BSG17 and has been studied in comparison to BSG01 (BRACO-19). The vials containing bulk test article were stored at room temperature (15-30° C.).
The test compound was reconstituted in 0.9% physiological saline B.P. to the required final concentrations. To ensure the stability of the test formulations, prepared formulations were administered within two hours of preparation.
Treated mice received a single bolus intravenous injection or oral gavage of the test formulations at a dose-volume of […] bodyweight. Control mice were untreated.
The mouse was selected because it is a rodent species and is acceptable to the regulatory authorities for pharmacokinetic studies. Dose levels of 1 mg/kg (intravenous) and 20 mg/kg (oral) were selected for this study.
Female MF1 mice in the weight rang of 26-30 g (6 to 8 weeks of age) were obtained from the BRF Facility, SGHMS/Harlan UK, Bicester and were individually identified using a permanent tail mark (using a non-toxic marker pen). The test article was administered to thirty-six (36) mice after a period of seven (7) days of acclimatisation to the study room.
Blood samples were obtained from three mice per time point and at the time points as specified below:
Blood samples were collected by cardiac puncture with mice held under deep halothane anaesthesia. After sampling mice were euthanased by cervical dislocation.
Samples were collected into pre-heparinised syringes and the samples transferred into 1 ml eppendorf tubes. Plasma was prepared by centrifugation, transferred to clean, labelled eppendorf tubes and frozen at approximately −20° C. pending analysis.
Samples were analysed using HPLC or GC-MS/MS methodology.
Composite plasma concentration time curves were generated over the period of 6-8 hours after the bolus iv or oral dose was administered.

[3] = tested on: G-quadruplex DNA (F21T oligonucleotide); experiment: FRET DNA melting assay; assay type: binding; settings: [conc]ΔTm=20 value
Procedure: The ability of the compounds to stabilise G-quadruplex DNA was investigated using a fluorescence resonance energy transfer (FRET) assay modified to be used as a high-throughput screen in a 96-well format. The labelled oligonucleotide F21T (5′-FAM-dGGG(TTAGGG)-3-TAMRA-3′) used as the FRET probe was diluted from stock to the correct concentration (400 nM) in a 50 mM potassium cacodylate buffer (pH 7.4) and then annealed by heating to 85° C. for 10 min., followed by cooling to room temperature in the heating block.
Compounds were stored as 10 mM stock solutions in DMSO; final solutions (at 2× concentration) were prepared using water or 1M HCl in the initial 1:10 dilution, after which 50 mM potassium cacodylate buffer (pH 7.4) was used in all subsequent steps. 96-well plates (MJ Research, Waltham, Mass.) were prepared by aliquoting 50 μl of the annealed DNA to each well, followed by […] of the compound solutions. Measurements were made on a DNA Engine Opticon (MJ Research) with excitation at 450-495 nm and detection at 515-545 nm. Fluorescence readings were taken at intervals of 0.5° C. over the range 30-100° C., with a constant temperature being maintained for 30 seconds prior to each reading to ensure a stable value. Final analysis of the data was carried out using a script written in the program Origin 7.0 (OriginLab Corp., Northampton, Mass.). […]

[4] = Cytotoxicity / growth inhibition, DU145; assay type: cell-based; settings: human, DU145 cells; read-out: Cytotoxic IC50 vs. DU145
Thermodynamic solubility = assay type: physicochemical; settings: for solubility at 24 h: thermodynamic from solid, read-out: Solubility Free Base equivalent
Procedure: Thermodynamic solubility values were determined in each of 0.1M HCl, Deionised water, pH6.8 phosphate buffer, 0.9% saline and 5% dextrose.
1.25-1.5 mg of sample was weighed out into a 1 ml HPLC tube to which 0.25 ml of the dissolution media was added to allow for determination of solubility up to 5 mg/ml. This suspension was then shaken for 24 hours before measurement of the pH, filtration (through a 96 well plate with a glass fibre filter membrane), dilution and analysis of the neat and diluted solutions at different injection volumes on a generic 5 minute HPLC method.
A reference solution was prepared in DMSO for comparison and calculation of the test solubilities. XRPD patterns were measured of remaining solids from experiments where complete dissolution was not achieved.
It is believed the large additional peak noted in the HPLC chromatograms is due to a rotamer of the parent compound. This should therefore be included in the overall peak area assessment. Therefore, the largest and second largest peaks noted in the reference solution were added together as were the same peaks (i.e. the same retention times) in the test sample injections.

[5] = Cytotoxicity / growth inhibition, MCF7; assay type: cell-based; settings: human, MCF7 cells; read-out: Cytotoxic IC50 vs. MCF7
[6] = UV + Pot, 25° C., 0.15 M KCl, read-out: Measured pKa, pKa1
[7] = potentiometric in aqueous/MeOH, Yasuda-Shedlovsky extrapolation to 0% MeOH, read-out: Measured pKa, pKa2
[8] = potentiometric in aqueous/MeOH, Yasuda-Shedlovsky extrapolation to 0% MeOH, read-out: Measured pKa, pKa3
[9] = 0.9% saline, saline or isotonic, 0.9% NaCl, 24 hours
[10] = aqueous buffer, pH 6.8 phosphate buffer, 24 hours
[11] = deionised water, Water, 24 hours
[12] = saline or isotonic, 5% Dextrose, 24 hours
[13] = simulated gastric fluid, 0.1M HCl, 24 hours

Row | SMILES | pKa [1, 6] | pKa [1, 7] | pKa [1, 8] | AUC(0-t) ([2]; Table 3) [µM·h] | AUC(0-t) ([2]; unit inferred) [µM·h] | Cmax [2] [nM] | clearance [2] [mL/min] | half-life [2] [h] | FRET [3] [µM] | IC50 at 96 h [4] [µM] | PH of unfiltered Saturated solution (Thermodynamic solubility; 0.1M HCl) | PH of unfiltered Saturated solution (Thermodynamic solubility; 0.9% NaCl) | solubility at 24 h (Thermodynamic solubility; [9]) [µg/mL] | PH of unfiltered Saturated solution (Thermodynamic solubility; 5% Dextrose) | PH of unfiltered Saturated solution (Thermodynamic solubility; Water) | solubility at 24 h (Thermodynamic solubility; [10]) [µg/mL] | solubility at 24 h (Thermodynamic solubility; [11]) [µg/mL] | PH of unfiltered Saturated solution (Thermodynamic solubility; pH 6.8 phosphate buffer) | solubility at 24 h (Thermodynamic solubility; [12]) [µg/mL] | solubility at 24 h (Thermodynamic solubility; [13]) [µg/mL] | also measured
1 | CN(C)c1ccc(Nc2c3ccc(NC(=O)CCN4CCCC4)cc3nc3cc(NC(=O)CCN4CCCC4)ccc23)cc1 [BSG01] | 4.15 | 8.14 | 9.08 | 0.96 | 0.96 | 1900 | 1 | 1.1 | 0.72 | 2.3 | 1.25 | 9.80 | < 1 | 8.26 | 8.66 | 2630 | < 1 | 7.45 | 220 | > 5000 | pKa ([1]; aqueous UV, read-out: pKa from aqueous UV measurement): 4.14; pKa ([1]; potentiometric in aqueous/MeOH, Yasuda-Shedlovsky extrapolation to 0% MeOH, read-out: Measured pKa, pKa4): 9.31; pKa ([1]; titration medium, ionic strength adjusted with 0.15 M KCl, potentiometry, incomplete curves, read-out: pKa from potentiometry): 4.15; Solubility Free Base equivalent (Thermodynamic solubility; Water, 24 hours): <1 µg/mL; IC50 at 96 h [5]: 2.53 µM
2 | O=C(CCN1CCCC1)Nc1ccc2c(NCc3ccc(F)c(F)c3)c3ccc(NC(=O)CCN4CCCC4)cc3nc2c1 [BSG17, N-(9-(3,4-Difluoro-benzylamino)-6-(3-pyrolidin-1-yl-propionamide)-acridin-3-yl)-3-pyrrolidin-1-yl-propionamide] | 8.17 | 9.09 | 9.61 | 1.23 | 1.23 | 1700 | 0.667 | 2.1 | 0.46 | 9.75 | 1.12 | 8.81 | < 1 | 7.96 | 8.34 | 1950 | 20 | 7.49 | 300 | > 5000 | IC50 at 96 h [5]: 2.26 µM
